Laboratory results taken from patent US8940911B2, “Squarylated lactones inhibitors for bacterial biofilm formation” (Syracuse University, priority 2012, dated 2015).

Legend:
[1] = tested on: DsRed-express-labeled E. coli RP437; assay: Confocal imaging of E. coli biofilms on stainless steel coupons (COMSTAT); assay type: cell-based, Escherichia coli; conditions: 200 μM, 24 h at 37° C., CLSM/COMSTAT
Method: The effects of SHLs upon the bacterial biofilm were examined; more specifically, the effect of SHLs upon the biofilm architecture. […] These studies were conducted by static biofilm assays employing crystal violet staining that indicates the total biomass that resides within a biofilm but provides no indication regarding the topology of the biofilms. To elucidate the topological features assumed by the E. coli RP437 biofilm in the presence of SHLs and BF8 48, studies of biofilms consisting of DsRed-express-labeled E. coli RP437 that is fluorescent and can be easily visualized by confocal laser scanning microscopy (CLSM) were performed. […] Further, the stacked images in vinyl-SHL 3 indicating the maximum thickness of the biofilm is considerably smaller than the biofilms in BF8 48 and the untreated E. coli samples. We developed the biofilms consisting of DsRed-express-labeled E. coli on stainless steel coupons (316 L, 1 in×1 in.) for 24 h at 37° C. that were treated with BF8 48 or SHLs or were left untreated. All the samples were analyzed with CLSM (see FIG. 8) and the maximum thickness of biofilms calculated using the COMSTAT software. […] Moreover, butyl-SHL 8 and butoxy-SCPA 46 reduce the biofilm thickness by 38% and 27%, respectively.
An overnight culture of E. coli RP437 pRSH103 grown in LB media (OD600 of 1.0) containing tetracycline (3 μg/mL) was subsequently sub-cultured to an OD600 of 0.04 (1:100 dilution with LB media). To each well in the solvent resistant polypropylene or polystyrene-based 24-well microtiter plates was added 200 μM synthetic molecules in DMSO solution respectively. In addition, to each of the wells containing the known concentrations of synthetic molecules was added 2 mL of the sub-cultured bacteria and the contents in each well were gently mixed. […] The fluorescent emission was detected with a LP 560 nm emission filter. The coupons were gently placed upside down on a microscope cover glass (24×60 mm, No. 2, VWR International LLC, West Chester, Pa., USA) and analyzed with CLSM. […]

[2] = tested on: E. coli RP437; assay: Static biofilm dispersion assay (established biofilm, crystal violet); assay type: cell-based, Escherichia coli; conditions: established 24 h E. coli RP437 biofilm, 200 μM, further 24 h
Source text: Apart from the design and development of molecules that display bacterial biofilm inhibition, perhaps the greater challenge is to construct small molecules that will effectively disperse established biofilm. Generally, treatment of chronic microbial infections is commonly hindered by the presence of established biofilms that offer increased resistance to the entry of antibiotics and prevent their mode of action. In fact, bacteria in the biofilms are known to be greater than 1000-fold resistant to microbicides. […] E. coli RP437 strain was allowed to form biofilms over 24 h in the absence of any inhibitor. […]
An overnight culture of E. coli RP437 grown in LB media (OD600 of 1.0) containing streptomycin (10 μg/mL) was subsequently sub-cultured to an OD600 of 0.03-0.04 (1:100 dilution with LB media). […] Finally, the biofilm formed was quantified by transferring 100 μL of the ethanol solution into a fresh polystyrene microtiter dish that was subsequently read by an absorbance plate reader (A600). After elimination of background absorbance, the percentage dispersion was calculated by dividing the amount of absorbed crystal violet in wells that contained the synthetic compound by the amount of absorbed crystal violet in wells that contained bacteria only (control). […]

SMILES	reduction of the maximum thickness of biofilm [1] [%]	biofilm dispersal ability [2] [%]	biofilm dispersal (in words) [2]
CC1=C(Br)/C(=C/Br)OC1=O [BF8 48, reference compound]	17	39	
CCCCOc1c(NC2CCCC2)c(=O)c1=O [butoxy-SCPA 46]	27		
C=Cc1c(NC2CCOC2=O)c(=O)c1=O (stereo not shown) [vinyl-SHL 3]			a quarter of biofilm being dispersed
